Values joined by “and” are separate entries in the source; they are usually repeats but may differ in a detail not shown here. Identical values can stand only once.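 Where inhibition never reached the appropriate level, the endpoint shown equals the highest concentration tested. Otherwise, values were interpolated linearly from a five-concentration, 48-hour dose response in 96-well plates. At the GI50, growth is halved. TGI is the concentration that stops growth completely.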
Tests used:
Assay in all cases: NCI-60 cell line screen, 48 h
HL-60(TB) leukemia = test system: HL-60(TB) leukemia
HOP-62 NSCLC = test system: HOP-62 NSCLC
HS 578T breast = test system: HS 578T breast
LOX IMVI melanoma = test system: LOX IMVI melanoma
M14 melanoma = test system: M14 melanoma
MCF7 breast = test system: MCF7 breast
SR leukemia = test system: SR leukemia
T-47D breast = test system: T-47D breast
TK-10 renal = test system: TK-10 renal
UACC-62 melanoma = test system: UACC-62 melanoma

SMILES	GI50 (HL-60(TB) leukemia)	TGI (HL-60(TB) leukemia)	GI50 (HOP-62 NSCLC)	TGI (HOP-62 NSCLC)	GI50 (HS 578T breast)	TGI (HS 578T breast)	GI50 (LOX IMVI melanoma)	TGI (LOX IMVI melanoma)	GI50 (M14 melanoma)	TGI (M14 melanoma)	GI50 (MCF7 breast)	TGI (MCF7 breast)	GI50 (SR leukemia)	TGI (SR leukemia)	GI50 (T-47D breast)	TGI (T-47D breast)	GI50 (TK-10 renal)	TGI (TK-10 renal)	GI50 (UACC-62 melanoma)	TGI (UACC-62 melanoma)
C/C(=C(/c1ccc(O)cc1)c1ccc(Cl)cc1)c1ccccc1	0.646 µM	1.71 µM	0.546 µM	1.37 µM	0.6 µM	1.67 µM	0.432 µM	0.788 µM	0.654 µM	1.93 µM	0.767 µM	2.07 µM	0.92 µM	7.98 µM	0.762 µM	3.22 µM	1.72 µM	5 µM	0.473 µM	1.06 µM
CC12CC=CCC1CCC1C2CCC2(C)C(c3ccc(=O)oc3)CCC12O (centres undefined)	0.0272 µM	0.0732 µM	0.0459 µM	0.201 µM	0.0335 µM	0.473 µM	0.0562 µM	0.213 µM	0.113 µM	0.404 µM	0.0794 µM	0.961 µM	0.03 µM	0.123 µM	0.23 µM	0.887 µM	0.0607 µM	0.496 µM	0.233 µM	0.661 µM
CSc1nsc(S/C=C\C(=O)c2ccc(C)cc2)n1	11.6 µM	> 68.9 µM	21 µM	43.8 µM	0.187 µM	6.33 µM	4.94 µM	10.8 µM	15.5 µM	30.8 µM		35.4 µM	1.25 µM	5.61 µM	23 µM	> 62.2 µM	18.6 µM	33.7 µM	18.5 µM	38.2 µM
COc1cc2ncnc3c2cc1OCCCCCN(C)Cc1ccc(Br)cc1N3	2.94 µM and 3.68 µM	> 100 µM	21.7 µM and 8.36 µM	> 100 µM	10.2 µM and 1.52 µM	> 100 µM	2.93 µM and 2.12 µM	> 100 µM	1.94 µM and 0.939 µM	> 100 µM	8.89 µM and 5.35 µM	> 100 µM	9.25 µM and 3.38 µM	> 100 µM	0.643 µM and 0.446 µM	85.4 µM and 9.5 µM	0.186 µM and 0.166 µM	> 100 µM	2.35 µM and 0.969 µM	> 100 µM
N=c1ccc2nc3c(cc(N)c4ccccc43)oc-2c1	0.147 µM	0.733 µM	0.267 µM	0.798 µM	0.201 µM	0.622 µM	0.103 µM	0.378 µM	0.164 µM	0.338 µM	0.162 µM	0.342 µM	0.285 µM	1.29 µM	1.09 µM	2.79 µM	0.737 µM	2.4 µM	0.197 µM	0.539 µM
Cc1cc(=O)oc2cc(OC(=O)N(CCCl)CCCl)ccc12		> 100 µM		> 100 µM		> 100 µM		> 100 µM		> 100 µM		> 100 µM		> 100 µM		> 100 µM		> 100 µM		> 100 µM
Nc1nc(N)nc(CC(=O)O)n1		> 100 µM		> 100 µM		> 100 µM		> 100 µM		> 100 µM		> 100 µM		> 100 µM		> 100 µM		> 100 µM		> 100 µM
CCCCCCNC(=O)Oc1ccc(/C(=C(/C)Cc2ccc(OC)cc2)c2ccc(OCCN(C)C)cc2)cc1	4.82 µM	10.3 µM	6.18 µM	11 µM	5.87 µM	12.3 µM	4.39 µM	8.8 µM	6.18 µM	11.5 µM	1.29 µM	6.98 µM	1.32 µM	6.55 µM	1.41 µM	7.12 µM	4.52 µM	9.02 µM	4.44 µM	8.72 µM
Cn1cc(C2=C(c3cn(C)c4cc(N)ccc34)C(=O)NC2=O)c2ccccc21	1.1 µM	5.52 µM	3.86 µM	> 25 µM	1.06 µM	> 19.6 µM	3.1 µM	> 25 µM	4.96 µM	> 25 µM	0.696 µM	> 16.8 µM	0.364 µM	4.02 µM	5.7 µM	> 21.6 µM	4.03 µM	14.3 µM	3.44 µM	8.39 µM
COc1ccc(NC(=O)n2nc(/C=C\c3ccc(O)c(OC)c3)cc2/C=C\c2ccc(O)c(OC)c2)cc1	2.55 µM	6.69 µM	3.65 µM	42.8 µM	6.77 µM	61.9 µM	3.95 µM	> 100 µM	3.15 µM	41.5 µM	3.03 µM	17 µM	1.52 µM	12.8 µM	3.68 µM	25.8 µM	10.2 µM	95.3 µM	2.14 µM	6.91 µM

Reference: PubChem BioAssay (NCI)
